Laboratory results from patent US20210238224A1, “METHOD OF CONSTRUCTING PROTAC BY USING DOUBLE TARGETS” (THE FIRST AFFILIATED HOSPITAL OF SUN YAT-SEN UNIVERSITY, priority 2018, published 2021).

Molecular target: T1, Smad3 (Rattus norvegicus, UniProt P84025)
T1 construct: endogenous in cells; host or cells: NRK49F rat kidney fibroblasts, stimulated with TGF-β1
Experiment: Western blot of Smad3 degradation in TGF-β1-stimulated rat kidney fibroblasts
Type: cell-based
Settings: NRK49F cells, 48 hours, FIGS. 6(A), 6(B)
Description: Rat kidney fibroblasts (NRK49F cell line) are cultured in vitro, passage 1:3 or 1:4 to six-well plates before cell fusion, and are divided into a TGF-β1 control group (TGF-β1 10 ng/ml), a PROTAC-PEG action group (TGF-β1 10 ng/ml+PROTAC-PEG of different concentrations: 1, 5, 25, 125 nM), and a PROTAC-butanedioic acid action group (TGF-β1 10 ng/ml+PROTAC-butanedioic acid of different concentrations: 1, 5, 25, 125 nM); the cells are lysed after 48 hours of culture and are used for Western blot.

T1 sequence (P84025 whole entry): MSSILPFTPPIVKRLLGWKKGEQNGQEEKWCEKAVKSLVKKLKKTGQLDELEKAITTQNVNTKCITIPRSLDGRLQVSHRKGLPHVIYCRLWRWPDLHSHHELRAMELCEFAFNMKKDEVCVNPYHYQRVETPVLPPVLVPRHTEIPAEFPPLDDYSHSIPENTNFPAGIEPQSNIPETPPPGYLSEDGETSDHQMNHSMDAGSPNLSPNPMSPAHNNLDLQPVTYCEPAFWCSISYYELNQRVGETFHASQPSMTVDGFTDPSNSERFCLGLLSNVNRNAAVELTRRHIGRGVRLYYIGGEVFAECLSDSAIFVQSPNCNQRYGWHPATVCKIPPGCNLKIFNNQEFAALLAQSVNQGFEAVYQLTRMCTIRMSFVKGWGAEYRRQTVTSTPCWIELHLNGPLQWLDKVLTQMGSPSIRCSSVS

effective concentration for Smad3 degradation (TGF-β1 10 ng/ml): 25 nM
SMILES: C[C@@H](NC(=O)[C@@H]1C[C@@H](O)CN1C(=O)[C@@H](NC(=O)CCC(=O)NC(c1cccnc1)c1cc2ccccc2o1)C(C)(C)C)c1ccc(-c2cc(N)cs2)cc1 (stereo partly drawn) [PROTAC-butanedioic acid]
degradation of target protein Smad3 (Western blot) (TGF-β1 10 ng/ml + PROTAC 1, 5, 25, 125 nM): degrades the target protein Smad3 in a concentration-dependent manner | Smad3-degrading activity compared with PROTAC-PEG (TGF-β1 10 ng/ml): significantly higher than that of PROTAC-PEG
